# Measurements: patent US20220135567A1, “TYK2 PSEUDOKINASE LIGANDS” (Ventyx Biosciences, Inc., priority 2019, published 2022)
# Test system: IFN-a/Jak1Tyk2
# Assay: Co-stimulation assay in lysed whole blood: IFNa (JAK1/TYK2) stimulated STAT1 phosphorylation
# Type: cell-based
# Details: lysed human whole blood, IFNa 100 ng/mL + GM-CSF 10 ng/mL, pSTAT1 by flow cytometry
# In short: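 Red-cell-lysed human whole blood, pretreated with compound for 1 h at 37°C, was stimulated 20 min at 37°C with IFNa (100 ng/mL final) plus GM-CSF (10 ng/mL final). Cells were then fixed/lysed, permeabilised in Perm Buffer III and stained overnight for pSTAT1 (PE) and pSTAT5. Read-out by flow cytometry.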
Compound,IC50 (20 min),IC50 (20 minutes)
"CNc1cc(Nc2cccc3c2OCCO3)nc2c(C(=O)NC3CC(C)(O)C3)cnn12 (stereo not shown) [Compound 75, 5-((2,3-dihydrobenzo[b][1,4]dioxin-5-yl)amino)-N-(3-hydroxy-3-methylcyclobutyl)-7-(methylamino)pyrazolo[1,5-a]pyrimidine-3-carboxamide]",< 100 nM,–
"CNc1cc(Nc2cccnc2C)nc2c(C(=O)NC3CC3)cnn12 [Compound 31, N-cyclopropyl-7-(methylamino)-5-((2-methylpyridin-3-yl)amino)pyrazolo[1,5-a]pyrimidine-3-carboxamide]",> 300 nM,–
"[2H]C([2H])([2H])n1cccc(Nc2cc(NC)n3ncc(C(=O)NC4CCC4)c3n2)c1=O [Compound 93, N-cyclobutyl-5-((1-(methyl-d3)-2-oxo-1,2-dihydropyridin-3-yl)amino)-7-(methylamino)pyrazolo[1,5-a]pyrimidine-3-carboxamide]",< 100 nM,–
"CNc1cc(Nc2cc(F)cc(F)c2OC)nc2c(C(N)=O)cnn12 [Compound 13, 5-((3,5-difluoro-2-methoxyphenyl)amino)-7-(methylamino)pyrazole[1,5-a]pyrimidine-3-carboxamide]",–,< 100 nM
"[2H]C([2H])([2H])n1cccc(Nc2cc(NC)n3ncc(C(=O)N[C@@H]4C[C@@H]4F)c3n2)c1=O [Compound 85, N-((1R,2S)-2-fluorocyclopropyl)-5-((1-(methyl-d3)-2-oxo-1,2-dihydropyridin-3-yl)amino)-7-(methylamino)pyrazolo[1,5-a]pyrimidine-3-carboxamide]",< 100 nM,–
"CNc1cc(Nc2cccn(-c3ccc(OC)nn3)c2=O)nc2c(C(=O)N[C@@H]3C[C@@H]3F)cnn12 [Compound 101, N-((1R,2S)-2-fluorocyclopropyl)-5-((1-(6-methoxypyridazin-3-yl)-2-oxo-1,2-dihydropyridin-3-yl)amino)-7-(methylamino)pyrazolo[1,5-a]pyrimidine-3-carboxamide]",< 100 nM,–
"CNc1cc(Nc2cccn(-c3ccc(OC)nn3)c2=O)nc2c(C(=O)NC3CCOC3)cnn12 (stereo not shown) [Compound 106, 5-((1-(6-methoxypyridazin-3-yl)-2-oxo-1,2-dihydropyridin-3-yl)amino)-7-(methylamino)-N-(tetrahydrofuran-3-yl)pyrazolo[1,5-a]pyrimidine-3-carboxamide]",100 to 1000 nM,–
"CNc1cc(Nc2cccc3c2OCO3)nc2c(C(=O)NCC(C)(C)CO)cnn12 [Compound 50, 5-(benzo[d][1,3]dioxol-4-ylamino)-N-(3-hydroxy-2,2-dimethylpropyl)-7-(methylamino)pyrazolo[1,5-a]pyrimidine-3-carboxamide]",< 100 nM,–
"CNc1cc(Nc2cccc3c2OCCO3)nc2c(C(=O)NC3CCC3)cnn12 [Compound 96, N-cyclobutyl-5-((2,3-dihydrobenzo[b][1,4]dioxin-5-yl)amino)-7-(methylamino)pyrazolo[1,5-a]pyrimidine-3-carboxamide]",< 100 nM,–
"CNc1cc(Nc2cc(C)cnc2OC)nc2c(C(=O)NC3CC3)cnn12 [Compound 56, N-cyclopropyl-5-((2-methoxy-5-methylpyridin-3-yl)amino)-7-(methylamino)pyrazolo[1,5-a]pyrimidine-3-carboxamide]",100 to 1000 nM,–
"CNc1cc(Nc2cccc3c2CCCO3)nc2c(C(=O)NC3CC3)cnn12 [Compound 82, 5-(chroman-5-ylamino)-N-cyclopropyl-7-(methylamino)pyrazolo[1,5-a]pyrimidine-3-carboxamide]",100 to 1000 nM,–
"[2H]C([2H])([2H])Nc1cc(Nc2cccn(C)c2=O)nc2c(C(=O)NC3CCC3)cnn12 [Compound 94, N-cyclobutyl-5-((1-methyl-2-oxo-1,2-dihydropyridin-3-yl)amino)-7-((methyl-d3)amino)pyrazolo[1,5-a]pyrimidine-3-carboxamide]",< 100 nM,–
"CNc1cc(Nc2cccn(-c3ccc(OC)nn3)c2=O)nc2c(C(=O)NCC(C)(C)CO)cnn12 [Compound 66, N-(3-hydroxy-2,2-dimethylpropyl)-5-((1-(6-methoxypyridazin-3-yl)-2-oxo-1,2-dihydropyridin-3-yl)amino)-7-(methylamino)pyrazolo[1,5-a]pyrimidine-3-carboxamide]",100 to 1000 nM,–
"CNc1cc(Nc2cccc3c2OCCO3)nc2c(C(=O)NC3CCOC3)cnn12 (stereo not shown) [Compound 68, 5-((2,3-dihydrobenzo[b][1,4]dioxin-5-yl)amino)-7-(methylamino)-N-(tetrahydrofuran-3-yl)pyrazolo[1,5-a]pyrimidine-3-carboxamide]",100 to 1000 nM,–
"CNC(=O)c1cnn2c(NC)cc(Nc3cc(C)cc(C)c3)nc12 [Compound 9, 5-((3,5-dimethylphenyl)amino)-N-methyl-7-(methylamino)pyrazole [1,5-a]pyrimidine-3-carboxamide]",–,1000 to 10000 nM
"CNc1cc(Nc2c(F)c(F)cc(F)c2F)nc2c(C(=O)NCC(C)(C)CO)cnn12 [Compound 24, N-(3-hydroxy-2,2-dimethylpropyl)-7-(methylamino)-5-((2,3,5,6-tetrafluorophenyl)amino)pyrazolo[1,5-a]pyrimidine-3-carboxamide]",< 100 nM,–
"CNc1cc(Nc2cnn(C3CCNC3=O)c2)nc2c(C(=O)NC3CC3)cnn12 (stereo not shown) [Compound 116, N-cyclopropyl-7-(methylamino)-5-((1-(2-oxopyrrolidin-3-yl)-1H-pyrazol-4-yl)amino)pyrazolo[1,5-a]pyrimidine-3-carboxamide]",1000 to 10000 nM,–
"CNc1cc(Nc2ccccc2OC)nc2c(C(=O)NC3CC3)cnn12 [Compound 16, N-cyclopropyl-5-((2-methoxyphenyl)amino)-7-(methylamino)pyrazolo[1,5-a]pyrimidine-3-carboxamide]",< 100 nM,–
"CCOC(=O)c1nscc1Nc1cc(NC)n2ncc(C(=O)NC3CC3)c2n1 [Compound 38, ethyl 4-((3-(cyclopropylcarbamoyl)-7-(methylamino)pyrazolo[1,5-a]pyrimidin-5-yl)amino)isothiazole-3-carboxylate]",> 300 nM,–
"CNc1cc(Nc2ccn(CC(F)(F)F)n2)nc2c(C(=O)NC3CC3)cnn12 [Compound 64, N-cyclopropyl-7-(methylamino)-5-((1-(2,2,2-trifluoroethyl)-1H-pyrazol-3-yl)amino)pyrazolo[1,5-a]pyrimidine-3-carboxamide]",> 300 nM,–
"CNc1cc(Nc2cn(C)nc2C(=O)Nc2ccc(N(C)C)cc2)nc2c(C(=O)NC3CC3)cnn12 [Compound 41, N-cyclopropyl-5-((3-((4-(dimethylamino)phenyl)carbamoyl)-1-methyl-1H-pyrazol-4-yl)amino)-7-(methylamino)pyrazolo[1,5-a]pyrimidine-3-carboxamide]",< 100 nM,–

# More lines, now with the values ahead:
IC50 (20 min),IC50 (20 minutes),Compound
100 to 1000 nM,–,"[2H]C([2H])([2H])NC(=O)c1cnn2c(NC([2H])([2H])[2H])cc(Nc3cc(F)cc4c3OCCO4)nc12 [Compound 78, 5-((7-fluoro-2,3-dihydrobenzo[b][1,4]dioxin-5-yl)amino)-N-(methyl-d3)-7-((methyl-d3)amino)pyrazolo[1,5-a]pyrimidine-3-carboxamide]"
1000 to 10000 nM,–,"CC(C)(CO)CNC(=O)c1cnn2c(NC3CC3)cc(Nc3cccc4c3OCO4)nc12 [Compound 59, 5-(benzo[d][1,3]dioxol-4-ylamino)-7-(cyclopropylamino)-N-(3-hydroxy-2,2-dimethylpropyl)pyrazolo[1,5-a]pyrimidine-3-carboxamide]"
< 100 nM,–,"[2H]C([2H])([2H])Nc1cc(Nc2cc(F)cc3c2OCCO3)nc2c(C(=O)N[C@@H]3C[C@@H]3F)cnn12 [Compound 80, 5-((7-fluoro-2,3-dihydrobenzo[b][1,4]dioxin-5-yl)amino)-N-((1R,2S)-2-fluorocyclopropyl)-7-((methyl-d3)amino)pyrazolo[1,5-a]pyrimidine-3-carboxamide]"
1000 to 10000 nM,–,"CNc1cc(Nc2cc(C(F)(F)F)cnc2OC)nc2c(C(=O)NC3CC3)cnn12 [Compound 62, N-cyclopropyl-5-((2-methoxy-5-(trifluoromethyl)pyridin-3-yl)amino)-7-(methylamino)pyrazolo[1,5-a]pyrimidine-3-carboxamide]"
< 100 nM,–,"[2H]C([2H])([2H])Nc1cc(Nc2cc(Cl)cc3c2OCCO3)nc2c(C(=O)NC3CC3)cnn12 [Compound 77, 5-((7-chloro-2,3-dihydrobenzo[b][1,4]dioxin-5-yl)amino)-N-cyclopropyl-7-((methyl-d3)amino)pyrazolo[1,5-a]pyrimidine-3-carboxamide]"
< 100 nM,–,"CNC(=O)c1nscc1Nc1cc(NC)n2ncc(C(=O)NC3CC3)c2n1 [Compound 43, 4-((3-(cyclopropylcarbamoyl)-7-(methylamino)pyrazolo[1,5-a]pyrimidin-5-yl)amino)-N-methylisothiazole-3-carboxamide]"
< 100 nM,–,"CNc1cc(Nc2c(F)c(F)cc(F)c2F)nc2c(C(=O)NC3CC3)cnn12 [Compound 17, N-cyclopropyl-7-(methylamino)-5-((2,3,5,6-tetrafluorophenyl)amino)pyrazolo[1,5-a]pyrimidine-3-carboxamide]"
100 to 1000 nM,–,"CNc1cc(Nc2ccccc2C(=O)OC)nc2c(C(=O)NC3CC3)cnn12 [Compound 28, methyl 2-((3-(cyclopropylcarbamoyl)-7-(methylamino)pyrazolo[1,5-a]pyrimidin-5-yl)amino)benzoate]"
< 100 nM,–,"CNc1cc(Nc2cccn(-c3cccc(C)n3)c2=O)nc2c(C(=O)NC3CCC3)cnn12 [Compound 112, N-cyclobutyl-5-((6′-methyl-2-oxo-2H-[1,2′-bipyridin]-3-yl)amino)-7-(methylamino)pyrazolo[1,5-a]pyrimidine-3-carboxamide]"
< 100 nM,–,"CNc1cc(Nc2cccc3c2OC(F)(F)O3)nc2c(C(=O)NCC(C)(C)CO)cnn12 [Compound 48, 5-((2,2-difluorobenzo[d][1,3]dioxol-4-yl)amino)-N-(3-hydroxy-2,2-dimethylpropyl)-7-(methylamino)pyrazolo[1,5-a]pyrimidine-3-carboxamide]"
